According to patent US5585385A, “Heterocyclic compounds, their production and use as tachykinin reactor antagonists” (Takeda Chemical Industries, Ltd., priority 1993, dated 1996):

What was measured:
[1] = target: T1, substance P receptor (Homo sapiens, UniProt P25103); experiment: Radioligand receptor binding inhibitory activity using receptor from human lymphoblast cells (IM-9), 125I-BHSP; details: human IM-9 cell receptor, 25° C., 30 minutes, pH 7.4, n=1
T1 construct: The receptor was prepared from human lymphoblast cells (IM-9); endogenous in cells; host or cells: IM-9 human lymphoblast cells (crude membrane preparation)
Protocol: Radioligand receptor binding inhibitory activity
Binding inhibitory activity using receptor from human lymphoblast cells (IM-9)
The method of A. Margaret "Molecular Pharmacology 42, p.458 (1992)" was modified and used. The receptor was prepared from human lymphoblast cells (IM-9). IM-9 cells (2×10^5 cells/ml) were inoculated and incubated for 3 days (one liter), which was then subjected to centrifuge for 5 minutes at 500×g to obtain cell pellets. The pellets were washed once with phosphate buffer (Flow Laboratories, CAT. No. 28-103-05), which were then crushed using Polytron.homogenizer "Kinematika, Germany" in 30 ml of 50 mM Tris-HCl buffer (pH 7.4) containing 120 mM sodium chloride, 5 mM potassium chloride, 2 μg/ml chymostatin, 40 μg/ml bacitracin, 5 μg/ml phosphoramidon, 0.5 mM phenylmethyl sulfonyl fluoride, 1 mM ethylenediamine tetra-acetic acid, which was subjected to centrifuge at 40,000×g for 20 minutes. The residue was washed twice with 30 ml of the above-mentioned buffer, which was then preserved frozen (-80° C.) as a specimen of the receptor.
The specimen was suspended in a reaction buffer (50 mM Tri-HCl buffer (pH 7.4), 0.02% bovine serum albumin, 1 mM phenylmethylsulfonyl fluoride, 2 μg/chymostatin, 40 μg/ml bacitracin, 3 mM manganese chloride) and 100 ul portion was the suspension was used in the reaction. After addition of the sample and ^125 I-BHSP (0.46 KBq), the reaction was allowed to proceed in 0.2 ml of reaction buffer at 25° C. for 30 minutes. The amount of nonspecific binding was determined by adding substance P at a final concentration of 2×10^-6 M. After the reaction, using a cell harvester (290 PHD, Cambridge Technology, Inc, U.S.A.), rapid filtration was carried out through a glass filter (GF/B, Whatman, U.S.A.) to stop the reaction. After washing three times with 250 ul of 50 mM of Tris-HCl buffer (pH 7.4) containing 0.02% bovine serum albumin, the radioactivity remaining on the filter was determined with a gamma counter. Before use, the filter was immersed in 0.1% polyethyleneimine for 24 hours and air-dried. […] (Radioligand means substance P labelled with ^125 I.) The number of this experiment is one.

[2] = system: plasma extravasation induced by capsaicin in trachea; experiment: Inhibitory effect on plasma extravasation induced by capsaicin in trachea of guinea pigs; assay type: in vivo, guinea pigs (Hartley type white male); details: Cavia porcellus, iv, 5 min, 5 min before capsaicin (150 μg/kg i.v.), guinea pig trachea, n=6; for inhibition in vivo at 0.1 mg/kg: 0.1 mg/kg i.v.; for inhibition in vivo at 0.03 mg/kg: 0.03 mg/kg i.v.
Protocol: Inhibitory effect on plasma extravasation induced by capsaicin in trachea of guinea pigs
Guinea pigs (Hartley type white male guinea pigs), (n=6) were anesthetized with 35 mg/kg of pentobarbital injected intraperitoneally (i.p.), then test compounds were administered intravenously (i.v.). After 5 minutes, a mixed solution of capsaicin (150 μg/kg) and Evans' blue dye (20 mg/kg) was administered intravenously to cause reaction. Ten minutes later, test animals were sacrificed by cutting the aorta, then perfused through pulmonary artery with 50 ml of physiological saline. The trachea was excised, and its wet weight was measured. The trachea was incubated at room temperature in 1 ml of acetone-0.3% sodium sulfate (7:3) overnight and Evans' blue dye was extracted from the trachea. The extract solution was centrifuged at 2800 rpm for 5 minutes. The amount of Evans' blue dye in the supernatant was quantified by measuring absorbance at […].
Plasma extravasation was expressed in terms of the amount of Evans' blue dye (μg) relative to the weight of the trachea (g). The efficacy of the drug was evaluated by calculating the % inhibition in accordance with the following formula. [formula] A: the amount of Evan's blue dye (μg/g) in each test animal B: the mean amount of Evan's blue dye (μg/g) of the group untreated with capsaicin.
C: the mean amount of Evan's blue dye (μg/g) of control group

T1 sequence (P25103 whole entry): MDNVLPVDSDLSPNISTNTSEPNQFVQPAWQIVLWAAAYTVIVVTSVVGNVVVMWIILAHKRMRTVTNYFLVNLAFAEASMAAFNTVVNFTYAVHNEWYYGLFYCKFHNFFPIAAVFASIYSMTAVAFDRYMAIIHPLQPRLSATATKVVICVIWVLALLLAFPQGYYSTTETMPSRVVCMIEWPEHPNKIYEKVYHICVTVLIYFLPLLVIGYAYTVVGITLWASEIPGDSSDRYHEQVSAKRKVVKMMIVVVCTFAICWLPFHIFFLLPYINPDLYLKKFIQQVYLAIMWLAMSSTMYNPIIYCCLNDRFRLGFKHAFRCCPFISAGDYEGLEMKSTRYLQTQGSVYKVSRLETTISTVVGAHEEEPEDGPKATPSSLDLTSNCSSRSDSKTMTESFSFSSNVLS

Structure (SMILES)	IC50 [1]	inhibition in vivo at 0.1 mg/kg [2]	inhibition in vivo at 0.03 mg/kg [2]
CN(Cc1cc(C(F)(F)F)cc(C(F)(F)F)c1)C(=O)c1c(-c2ccc(F)cc2)c2c(c(=O)n1C)CCCN2 [Example 27, N-[3,5-Bis(trifluoromethyl)benzyl]-8-(4-fluorophenyl)-1,2,3,4,5,6-hexahydro-N, 6-dimethyl-5-oxo-7-pyrido[4,3-b]pyridinecarboxamide]	0.18 nM	74%	–
CN(Cc1cc(C(F)(F)F)cc(C(F)(F)F)c1)C(=O)c1c(-c2ccc(F)cc2)c2c(c(=O)n1C)CNCC2 [Example 53, N-[3,5-Bis(trifluoromethyl)benzyl]-4-(4-fluorophenyl)-1,2,5,6,7,8-hexahydro-N,2-dimethyl-1-oxo-3-pyrido[3,4-c]pyridinecarboxamide]	0.15 nM	59.9%	–
CN(Cc1cc(C(F)(F)F)cc(C(F)(F)F)c1)C(=O)c1c(-c2ccccc2)c2c(c(=O)n1C)N(C)CCC2 [Example 49, N-[3,5-Bis(trifluoromethyl)benzyl]-1,2,3,4,7,8-hexahydro-5-phenyl-N,1,7-trimethyl-8-oxo-6-pyrido[3,4-b]pyridinecarboxamide]	1.3 nM	66.7%	–
Cc1ccccc1-c1c2c(c(=O)n(C)c1C(=O)N(C)Cc1cc(C(F)(F)F)cc(C(F)(F)F)c1)CCCN2 [Example 26, N-[3,5-Bis(trifluoromethyl)benzyl]-1,2,3,4,5,6-hexahydro-N, 6-dimethyl-8-(2-methylphenyl)-5-oxo-7-pyrido[4,3-b]pyridinecarboxamide]	0.05 nM	–	46.2%
CN(Cc1cc(C(F)(F)F)cc(C(F)(F)F)c1)C(=O)c1c(-c2ccccc2)c2c(c(=O)n1C)CNCC2 [Example 54, N-[3,5-Bis(trifluoromethyl)benzyl]-1,2,5,6,7,8-hexahydro-N,2-dimethyl-1-oxo-4-phenyl-3-pyrido[3,4-c]pyridinecarboxamide]	0.4 nM	48.3%	–
Cc1ccc(-c2c3c(c(=O)n(C)c2C(=O)N(C)Cc2cc(C(F)(F)F)cc(C(F)(F)F)c2)CN(C)CC3)cc1 [Example 59, N-[3,5-Bis(trifluoromethyl)benzyl]-1,2,5,6,7,8-hexahydro-N,2,7-trimethyl-4-(4-methylphenyl)-1-oxo-3-pyrido[3,4-c]pyridinecarboxamide]	0.12 nM	–	55%
CN(Cc1cc(C(F)(F)F)cc(C(F)(F)F)c1)C(=O)c1c(-c2ccc(F)cc2)c2ccsc2c(=O)n1C [Example 13, N-[3,5-Bis(trifluoromethyl)benzyl]-4-(4-fluorophenyl)-6,7-dihydro-N, 6-dimethyl-7-oxo-5-thieno[2,3-c]pyridinecarboxamide]	0.08 nM	76.1%	–
CN1CCc2c(-c3ccccc3)c(C(=O)N(C)Cc3cc(C(F)(F)F)cc(C(F)(F)F)c3)n(C)c(=O)c2C1 [Example 50, N-[3,5-Bis(trifluoromethyl)benzyl]-1,2,5,6,7,8-hexahydro-N,2,7-trimethyl-1-oxo-4-phenyl-3-pyrido[3,4-c]pyridinecarboxamide]	0.4 nM	52.2%	–
CN(Cc1cc(C(F)(F)F)cc(C(F)(F)F)c1)C(=O)c1c(-c2ccc(F)cc2)c2sccc2c(=O)n1C [Example 17, N-[3,5-Bis(trifluoromethyl)benzyl]-7-(4-fluorophenyl)-4,5-dihydro-N, 5-dimethyl-4-oxo-6-thieno[3,2-c]pyridinecarboxamide]	0.31 nM	51.5%	–

Further lines, with some results ahead:

IC50 [1]	Structure (SMILES)	inhibition in vivo at 0.1 mg/kg [2]	inhibition in vivo at 0.03 mg/kg [2]
0.17 nM	CN(Cc1cc(C(F)(F)F)cc(C(F)(F)F)c1)C(=O)c1c(-c2ccc(F)cc2)c2ccncc2c(=O)n1C [Example 8, N-[3,5-Bis(trifluoromethyl)benzyl]-4-(4-fluorophenyl)-1,2-dihydro-N, 2-dimethyl-1-oxo-3-pyrido[3,4-c]pyridine carboxamide]	64.9%	–
0.2 nM	CN(Cc1cc(C(F)(F)F)cc(C(F)(F)F)c1)C(=O)c1c(-c2ccc(F)cc2)c2nccnc2c(=O)n1C [Example 7, N-[3,5-Bis(trifluoromethyl)benzyl]-8-(4-fluorophenyl)-5,6-dihydro-N, 6-dimethyl-5-oxo-7-pyrido[3,4-b]pyrazine carboxamide]	71.9%	–
0.28 nM	CN(Cc1cc(C(F)(F)F)cc(C(F)(F)F)c1)C(=O)c1c(-c2ccc(F)cc2)c2ccn(C)c2c(=O)n1C [Example 39, N-[3,5-Bis(trifluoromethyl)benzyl]-4-(4-fluorophenyl)-6,7-dihydro-N,1,6-trimethyl-7-oxo-5-pyrrolo[2,3-c]pyridinecarboxamide]	67.9%	–
0.34 nM	Cc1ccc(-c2c(C(=O)N(C)Cc3cc(C(F)(F)F)cc(C(F)(F)F)c3)n(C)c(=O)c3ncccc23)cc1 [Example 56, N-[3,5-Bis(trifluoromethyl)benzyl]-7,8-dihydro-N, 7-dimethyl-5-(4-methylphenyl)-8-oxo-6-pyrido[3,4-b]pyridinecarboxamide]	–	58.1%
0.34 nM	CN(Cc1cc(C(F)(F)F)cc(C(F)(F)F)c1)C(=O)c1c(-c2ccccc2)c2cccnc2c(=O)n1C [Example 36, N-[3,5-Bis(trifluoromethyl)benzyl]-7,8-dihydro-N, 7-dimethyl-8-oxo-5-phenyl-6-pyrido[3,4-b]pyridinecarboxamide]	–	54.3%
0.08 nM	CN(Cc1cc(C(F)(F)F)cc(C(F)(F)F)c1)C(=O)c1c(-c2ccc(F)cc2)c2cccnc2c(=O)n1C [Example 1, N-[3,5-Bis(trifluoromethyl)benzyl]-5-(4-fluorophenyl)-7,8-dihydro-N, 7-dimethyl-8-oxo-6-pyrido[3,4-b]pyridine carboxamide]	–	76.1%
3.8 nM	COc1ccc(-c2c(C(=O)N(C)Cc3cc(C(F)(F)F)cc(C(F)(F)F)c3)n(C)c(=O)c3ncccc23)cc1 [Example 57, N-[3,5-Bis(trifluoromethyl)benzyl]-7,8-dihydro-5-(4-methoxyphenyl)-N,7-dimethyl-8-oxo-6-pyrido[3,4-b]pyridinecarboxamide]	51.4%	–
1.1 nM	CN(Cc1cc(C(F)(F)F)cc(C(F)(F)F)c1)C(=O)c1c(-c2ccc(F)cc2)c2scnc2c(=O)n1C [Example 41, N-[3,5-Bis(trifluoromethyl)benzyl]-7-(4-fluorophenyl)-4,5-dihydro-N, 5-dimethyl-4-oxo-6-thiazolo[4,5-c]pyridinecarboxamide]	46.9%	–
0.72 nM	Cc1ccc(-c2c(C(=O)N(C)Cc3cc(C(F)(F)F)cc(C(F)(F)F)c3)n(C)c(=O)c3cnccc23)cc1 [Example 58, N-[3,5-Bis(trifluoromethyl)benzyl]-1,2-dihydro-N, 2-dimethyl-4-(4-methylphenyl)-1-oxo-3-pyrido[3,4-c]pyridinecarboxamide]	35.2%	–
